Data published in ChEMBL document CHEMBL1154932, “Structure-based drug design enables conversion of a DFG-in binding CSF-1R kinase inhibitor to a DFG-out binding mode” (Bioorg Med Chem Lett, 2010).

Key:
[1] = biological target: hERG (KCNH2) (Homo sapiens, UniProt Q12809); assay: Inhibition of CyB-tagged dofetilide binding to human ERG at 10 uM; conditions: probe CyB-tagged dofetilide
[2] = biological target: Macrophage colony-stimulating factor 1 receptor (Homo sapiens, UniProt P07333); assay: Inhibition of human CSF1R autophosphorylation expressed in HEK293 cells after 1 hr by ELISA
Macrophage colony-stimulating factor 1 receptor, sequence (P07333 whole entry): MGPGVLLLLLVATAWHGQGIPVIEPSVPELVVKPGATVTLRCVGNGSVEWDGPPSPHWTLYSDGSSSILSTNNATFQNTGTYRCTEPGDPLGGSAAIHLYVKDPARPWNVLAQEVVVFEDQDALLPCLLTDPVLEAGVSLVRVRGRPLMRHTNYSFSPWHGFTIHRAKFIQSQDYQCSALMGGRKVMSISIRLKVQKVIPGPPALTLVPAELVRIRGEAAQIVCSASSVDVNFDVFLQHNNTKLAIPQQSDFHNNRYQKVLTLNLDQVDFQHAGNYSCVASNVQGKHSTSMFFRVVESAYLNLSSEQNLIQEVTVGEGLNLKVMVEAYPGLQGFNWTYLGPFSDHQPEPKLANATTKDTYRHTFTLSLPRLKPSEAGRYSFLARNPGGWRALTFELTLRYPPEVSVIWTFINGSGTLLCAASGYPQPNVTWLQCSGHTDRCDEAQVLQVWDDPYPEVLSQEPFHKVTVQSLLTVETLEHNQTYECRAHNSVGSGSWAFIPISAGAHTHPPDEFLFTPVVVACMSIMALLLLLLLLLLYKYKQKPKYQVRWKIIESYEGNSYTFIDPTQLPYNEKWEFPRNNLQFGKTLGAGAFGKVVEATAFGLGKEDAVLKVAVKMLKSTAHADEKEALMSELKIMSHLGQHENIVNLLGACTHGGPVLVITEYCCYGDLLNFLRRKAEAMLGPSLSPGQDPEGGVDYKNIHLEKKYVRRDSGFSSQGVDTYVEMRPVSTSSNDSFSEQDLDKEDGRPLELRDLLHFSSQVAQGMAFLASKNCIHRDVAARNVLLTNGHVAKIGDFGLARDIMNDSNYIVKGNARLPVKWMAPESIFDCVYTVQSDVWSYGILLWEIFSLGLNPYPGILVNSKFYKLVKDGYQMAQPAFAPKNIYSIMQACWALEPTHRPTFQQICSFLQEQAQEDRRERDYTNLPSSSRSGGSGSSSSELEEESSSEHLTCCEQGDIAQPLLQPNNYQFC

hERG (KCNH2), sequence (Q12809 whole entry): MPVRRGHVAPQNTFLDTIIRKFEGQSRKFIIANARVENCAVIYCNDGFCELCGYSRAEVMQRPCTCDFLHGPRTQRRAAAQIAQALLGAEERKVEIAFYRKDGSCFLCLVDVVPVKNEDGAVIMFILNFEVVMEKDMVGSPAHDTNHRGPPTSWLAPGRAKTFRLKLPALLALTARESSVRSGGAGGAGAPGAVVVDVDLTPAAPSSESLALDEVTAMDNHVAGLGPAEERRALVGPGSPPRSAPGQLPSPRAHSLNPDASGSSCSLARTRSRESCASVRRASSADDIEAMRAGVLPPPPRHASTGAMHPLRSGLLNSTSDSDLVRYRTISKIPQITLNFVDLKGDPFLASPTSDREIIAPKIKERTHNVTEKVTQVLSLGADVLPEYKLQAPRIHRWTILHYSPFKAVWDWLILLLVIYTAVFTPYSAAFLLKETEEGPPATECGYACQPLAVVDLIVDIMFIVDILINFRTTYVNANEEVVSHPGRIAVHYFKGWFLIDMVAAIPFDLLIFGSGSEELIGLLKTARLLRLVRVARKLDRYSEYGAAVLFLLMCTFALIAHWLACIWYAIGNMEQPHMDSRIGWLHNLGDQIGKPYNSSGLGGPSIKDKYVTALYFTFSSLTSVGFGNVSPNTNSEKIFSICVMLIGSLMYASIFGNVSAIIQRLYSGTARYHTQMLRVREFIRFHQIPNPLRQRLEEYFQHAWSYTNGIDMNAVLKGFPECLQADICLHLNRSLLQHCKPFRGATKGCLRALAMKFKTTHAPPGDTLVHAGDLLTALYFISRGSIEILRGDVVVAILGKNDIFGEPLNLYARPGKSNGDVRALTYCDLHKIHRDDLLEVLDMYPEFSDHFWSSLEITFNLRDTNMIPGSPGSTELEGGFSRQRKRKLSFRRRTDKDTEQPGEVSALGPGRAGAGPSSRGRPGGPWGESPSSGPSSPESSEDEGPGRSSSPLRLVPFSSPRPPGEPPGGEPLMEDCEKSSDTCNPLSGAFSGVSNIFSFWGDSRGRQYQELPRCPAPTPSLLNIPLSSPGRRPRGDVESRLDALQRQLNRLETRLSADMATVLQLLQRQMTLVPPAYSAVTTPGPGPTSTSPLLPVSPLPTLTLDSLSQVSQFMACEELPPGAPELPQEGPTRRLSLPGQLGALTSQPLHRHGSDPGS

SMILES: Cn1cc(-c2cnc(N)c(OCc3c(Cl)cccc3Cl)n2)cn1
- inhibition at 10 µM [1]: 7%

SMILES: Cn1cc(-c2cnc(N)c(NCc3c(Cl)cccc3Cl)n2)cn1
- inhibition at 10 µM [1]: 6%

SMILES: Nc1ncc(-c2ccc(C(=O)N3CCC[C@H]3CN3CCCC3)cc2)nc1OCc1c(Cl)cccc1Cl
- inhibition at 10 µM [1]: 91%

SMILES: COc1ccc(COc2ncc(Oc3nc(-c4cnn(C)c4)cnc3N)cc2OC)cc1
- IC50 [2]: 12 nM

SMILES: Nc1ncc(-c2ccc(C(=O)N3CCC[C@H]3CN3CCCC3)cc2)nc1NCc1c(Cl)cccc1Cl
- inhibition at 10 µM [1]: 78%

SMILES: Cn1cc(-c2cnc(N)c(OCc3ccccc3Cl)n2)cn1
- inhibition at 10 µM [1]: 7%
